Source: patent publication US20060069132A1, “Azolecarboxamide herbicides” (priority 2004, published 2006)

Key:
barnyardgrass [1] = experiment: Test A pre-/postemergence herbicide test; assay type: in vivo, Echinochloa crus-galli
Method in brief: (§1)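 Visual injury rating on a 0–100 scale (0 no effect, 100 complete control) versus untreated controls, about ten days after treatment in greenhouse. Pre: directed soil spray onto seeded sandy loam. Post: spray to runoff on plants 2–10 cm tall at one- to two-leaf stage.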

large crabgrass [2] = experiment: Test A pre-/postemergence herbicide test; assay type: in vivo, Digitaria sanguinalis
Method in brief: as §1

giant foxtail [3] = experiment: Test A pre-/postemergence herbicide test; assay type: in vivo, Setaria faberi
Method in brief: as §1

morningglory [4] = experiment: Test A pre-/postemergence herbicide test; assay type: in vivo, Ipomoea spp.
Method in brief: as §1

redroot pigweed = experiment: Test A pre-/postemergence herbicide test; assay type: in vivo, Amaranthus retroflexus
Method in brief: as §1

velvetleaf [5] = experiment: Test A pre-/postemergence herbicide test; assay type: in vivo, Abutilon theophrasti
Method in brief: as §1

barnyardgrass [6] = experiment: Test B pre-/postemergence herbicide test; assay type: in vivo, Echinochloa crus-galli
Method in brief: (§2)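 Herbicidal effect was judged by eye on a 0–100 scale after plants stood 13 to 15 days in the greenhouse following pre- or postemergence treatment with surfactant-containing formulations.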

Surinam grass = experiment: Test B pre-/postemergence herbicide test; assay type: in vivo, Urochloa decumbens
Method in brief: (§3)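 Pre: seeds sown, then sprayed. Post: 1–4-leaf plants (2–18 cm) sprayed at the same time. Paddy: flooded, treated at 2-leaf stage. Formulation: non-phytotoxic solvent with surfactant. Greenhouse 13–15 days; visual 0–100 score relative to controls.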

cocklebur = experiment: Test B pre-/postemergence herbicide test; assay type: in vivo, Xanthium strumarium
Method in brief: as §2

corn = experiment: Test B pre-/postemergence herbicide test; assay type: in vivo, Zea mays
Method in brief: as §3

large crabgrass [7] = experiment: Test B pre-/postemergence herbicide test; assay type: in vivo, Digitaria sanguinalis
Method in brief: as §3

giant foxtail [8] = experiment: Test B pre-/postemergence herbicide test; assay type: in vivo, Setaria faberi
Method in brief: as §3

lambsquarters = experiment: Test B pre-/postemergence herbicide test; assay type: in vivo, Chenopodium album
Method in brief: as §3

morningglory [9] = experiment: Test B pre-/postemergence herbicide test; assay type: in vivo, Ipomoea coccinea
Method in brief: as §2

pigweed = experiment: Test B pre-/postemergence herbicide test; assay type: in vivo, Amaranthus retroflexus
Method in brief: as §3

velvetleaf [10] = experiment: Test B pre-/postemergence herbicide test; assay type: in vivo, Abutilon theophrasti
Method in brief: as §3

blackgrass = experiment: Test B postemergence herbicide test; assay type: in vivo, Alopecurus myosuroides; settings: scale 0 (no effect) to 100 (complete control)
Method in brief: (§4)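 Treated at 2-leaf (paddy) or 1–4-leaf, 2–18 cm (postemergence); greenhouse 13–15 d; visual score vs control, 0 none to 100 complete control; dash = not tested.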

wheat = experiment: Test B postemergence herbicide test; assay type: in vivo, Triticum aestivum; parameters: key to Wheat plant response rating: 0 = no effect, 100 = complete control; settings: scale 0 (no effect) to 100 (complete control)
Method in brief: (§5)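 Visual ratings, 0 (no effect) to 100 (complete control), made versus controls after 13–15 d greenhouse. Paddy plants treated at 2-leaf stage; postemergence plants at 1- to 4-leaf stage, 2–18 cm tall.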

wild oat = experiment: Test B postemergence herbicide test; assay type: in vivo, Avena fatua; settings: scale 0 (no effect) to 100 (complete control)
Method in brief: as §5

rice = experiment: Test B flooded paddy test; assay type: in vivo, Oryza sativa; settings: 1000 g ai/ha, visual rating, scale 0 to 100 (0 no effect, 100 complete control), 13 to 15 days
Method in brief: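 Plants grow to 1- to 4-leaf stage (2–18 cm) for postemergence spraying, or to 2-leaf stage for the paddy test. Formulated compound is applied. Greenhouse holding lasts 13–15 days. Response is scored visually relative to controls, 0 no effect to 100 complete control; a dash means no result.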

[11] = system: small flower umbrella sedge; experiment: Test B flooded paddy test; assay type: in vivo, Cyperus difformis; settings: 1000 g ai/ha, visual rating, scale 0 to 100 (0 no effect, 100 complete control), 13 to 15 days
Method in brief: as §4

ducksalad = experiment: Test B flooded paddy test; assay type: in vivo, Heteranthera limosa; settings: 1000 g ai/ha, visual rating, scale 0 to 100 (0 no effect, 100 complete control), 13 to 15 days
Method in brief: as §4

barnyardgrass [12] = experiment: Test B flooded paddy test; assay type: in vivo, Echinochloa crus-galli; settings: 1000 g ai/ha, visual rating, scale 0 to 100 (0 no effect, 100 complete control), 13 to 15 days
Method in brief: as §4

[13] = Postemergence, 500 g ai/ha, 0 to 100 scale, 0 no effect, 100 complete control
[14] = Postemergence, 2000 g ai/ha, 0 to 100 scale, 0 no effect, 100 complete control
[15] = Preemergence, 500 g ai/ha, visual rating, 0 to 100 scale (0 no effect, 100 complete control)
[16] = Preemergence, 2000 g ai/ha, visual rating, 0 to 100 scale (0 no effect, 100 complete control)
[17] = 500 g ai/ha, visual rating 0-100, 0 no effect, 100 complete control, preemergence
[18] = Postemergence, 500 g ai/ha, visual rating after 13 to 15 days, scale 0 (no effect) to 100 (complete control)
[19] = postemergence, 125 g ai/ha, visual rating, scale 0 (no effect) to 100 (complete control)
[20] = preemergence, 125 g ai/ha, 0 to 100 scale, 0 is no effect, 100 is complete control
[21] = Postemergence, 500 g ai/ha, visual rating after 13 to 15 days
[22] = postemergence, 125 g ai/ha, visual rating

SMILES: CC(=NO)c1cc(NC(=O)c2cc(C(C)(C)C)nn2C)ccc1F [Compound 109]
- Barnyardgrass plant response rating (barnyardgrass [1]; [13]): 75
- Plant response rating, Barnyardgrass (barnyardgrass [1]; [14]): 90
- Barnyardgrass plant response rating (barnyardgrass [1]; [15]): 85
- Barnyardgrass plant response rating (barnyardgrass [1]; [16]): 90
- Crabgrass, Large plant response rating (large crabgrass [2]; [13]): 20
- Plant response rating, Crabgrass, Large (large crabgrass [2]; [14]): 55
- Crabgrass, Large plant response rating (large crabgrass [2]; [15]): 80
- Crabgrass, Large plant response rating (large crabgrass [2]; [16]): 95
- Foxtail, Giant plant response rating (giant foxtail [3]; [13]): 55
- Plant response rating, Foxtail, Giant (giant foxtail [3]; [14]): 90
- Foxtail, Giant plant response rating (giant foxtail [3]; [15]): 80
- Foxtail, Giant plant response rating (giant foxtail [3]; [16]): 90
- Morningglory plant response rating (morningglory [4]; [13]): 25
- Plant response rating, Morningglory (morningglory [4]; [14]): 40
- Morningglory plant response rating (morningglory [4]; [15]): 35
- Morningglory plant response rating (morningglory [4]; [16]): 45
- Pigweed plant response rating (redroot pigweed; [13]): 100
- Plant response rating, Pigweed (redroot pigweed; [14]): 100
- Pigweed plant response rating (redroot pigweed; [15]): 75
- Pigweed plant response rating (redroot pigweed; [16]): 100
- Velvetleaf plant response rating (velvetleaf [5]; [13]): 25
- Plant response rating, Velvetleaf (velvetleaf [5]; [14]): 45
- Velvetleaf plant response rating (velvetleaf [5]; [15]): 15
- Velvetleaf plant response rating (velvetleaf [5]; [16]): 25
- Plant response rating, Barnyardgrass (barnyardgrass [6]; [17]): 100
- Plant response rating, Barnyardgrass (barnyardgrass [6]; [18]): 20
- Barnyardgrass plant response rating (barnyardgrass [6]; [19]): 10
- Plant response rating, Barnyardgrass (barnyardgrass [6]; [20]): 80
- Plant response rating, Surinam Grass (Surinam grass; [17]): 80
- Plant response rating, Surinam Grass (Surinam grass; [18]): 20
- Surinam Grass plant response rating (Surinam grass; [19]): 10
- Plant response rating, Surinam Grass (Surinam grass; [20]): 60
- Plant response rating, Cocklebur (cocklebur; [17]): 20
- Plant response rating, Cocklebur (cocklebur; [18]): 70
- Cocklebur plant response rating (cocklebur; [19]): 30
- Plant response rating, Cocklebur (cocklebur; [20]): 0
- Plant response rating, Corn (corn; [17]): 10
- Plant response rating, Corn (corn; [18]): 20
- Corn plant response rating (corn; [19]): 10
- Plant response rating, Corn (corn; [20]): 0
- Plant response rating, Crabgrass, Large (large crabgrass [7]; [17]): 100
- Plant response rating, Crabgrass, Large (large crabgrass [7]; [18]): 10
- Crabgrass, Large plant response rating (large crabgrass [7]; [19]): 10
- Plant response rating, Crabgrass, Large (large crabgrass [7]; [20]): 80
- Plant response rating, Foxtail, Giant (giant foxtail [8]; [17]): 100
- Plant response rating, Foxtail, Giant (giant foxtail [8]; [18]): 20
- Foxtail, Giant plant response rating (giant foxtail [8]; [19]): 20
- Plant response rating, Foxtail, Giant (giant foxtail [8]; [20]): 70
- Plant response rating, Lambsquarters (lambsquarters; [17]): 90
- Plant response rating, Lambsquarters (lambsquarters; [18]): 20
- Lambsquarters plant response rating (lambsquarters; [19]): 10
- Plant response rating, Lambsquarters (lambsquarters; [20]): 20
- Plant response rating, Morningglory (morningglory [9]; [17]): 100
- Plant response rating, Morningglory (morningglory [9]; [18]): 10
- Morningglory plant response rating (morningglory [9]; [19]): 0
- Plant response rating, Morningglory (morningglory [9]; [20]): 10
- Plant response rating, Pigweed (pigweed; [17]): 100
- Plant response rating, Pigweed (pigweed; [18]): 70
- Pigweed plant response rating (pigweed; [19]): 20
- Plant response rating, Pigweed (pigweed; [20]): 30
- Plant response rating, Velvetleaf (velvetleaf [10]; [17]): 60
- Plant response rating, Velvetleaf (velvetleaf [10]; [18]): 20
- Velvetleaf plant response rating (velvetleaf [10]; [19]): 10
- Plant response rating, Velvetleaf (velvetleaf [10]; [20]): 20
- Plant response rating, Blackgrass (blackgrass; [21]): 20
- Blackgrass plant response rating (blackgrass; [22]): 0
- Plant response rating, Wheat (wheat; [21]): 20
- Wheat plant response rating (wheat; [22]): 10
- Plant response rating, Oat, Wild (wild oat; [21]): 30
- Oat, Wild plant response rating (wild oat; [22]): 20
- Rice plant response rating (rice): 70
- Sedge, Umbrella plant response rating [11]: 60
- Ducksalad plant response rating (ducksalad): 90
- Barnyardgrass plant response rating (barnyardgrass [12]): 80
